Tests used:
[1] = system: P493 human lymphoma B cells; assay: Human P493 B cell lymphoma xenograft; type: in vivo, SCID mice; conditions: treatment from 200 mm^3; daily IP 42 μg FX11 and/or 100 μg FK866; ten days
Experimental: The animal studies were performed according to the protocols approved by the Animal Care and Use Committee at Johns Hopkins University. In order to generate tumorigenesis study in xenograft model, 2.0×10^7 P493 human lymphoma B cells or 5×10^6 human pancreatic cancer cells were injected subcutaneously into male SCID mice (NCI) or athymic Hsd: RH-Foxn1nu mice (Harlan), respectively, as previously described (Feldmann et al., 2007; Gao et al., 2009; Gao et al., 2007). When the tumor volume reached 200 mm^3, groups of 5 mice were injected with control 2% DMSO or 42 μg FX11 and/or 100 μg FK866. The tumor volumes were measured using a digital caliper after 4, 7 and 10 days of treatment. Tumor volumes were calculated using the following formula: [length (mm)×width (mm)×width (mm)×0.52]. The entire experiment was repeated seven times.

[2] = target: T1, LDHA (Homo sapiens, UniProt P00338); conditions: cited from earlier work
[3] = target: purified human liver LDHA (Homo sapiens, UniProt P00338); assay: Determination of Ki and enzyme kinetics of LDHA
Experimental: The reaction velocity of purified human LDHA or GAPDH was determined by a decrease or increase in absorbance at 340 nm of NADH, respectively. […] The GADPH activity was assessed using the protocol described in Worthington Enzyme Manual: http://www.worthington-biochem.com/GAPD/assay.html with varying concentrations of NAD^+. Ki values were determined from double-reciprocal plots by linear regression analysis using SigmaPlot Enzyme Kinetic software.

[4] = system: P493 cells; assay: ROS measurement by DCFDA flow cytometry; type: cell-based, human
Experimental: The measurement of intracellular ROS production was measured by staining cells with 5-(and-6)-carboxy-2′,7′-dichlorodihydrofluorescein diacetate (carboxy-H2DCFDA; Molecular Probes) according to the manufacturer's instructions. 10^5 cells/ml were treated with 9 μM FX11 or FK866 for 24 hours. Stained cells were analyzed in FACScan flow cytometers (BD Bioscience).

[5] = system: P493 human lymphoma B cells; assay: Cell population growth, trypan blue live cell count; type: cell-based
Experimental: P493 human lymphoma B cells were maintained in RPMI 1640 with 10% fetal bovine serum (FBS) and 1% penicillin-streptomycin. P198 human pancreatic cancer cells; RCC4, RCC4-VHL human renal carcinoma cells; MCF-7 and MDA-MB-453 breast cancer cells were maintained in high glucose (4.5 mg/ml) DMEM with 10% FBS and 1% penicillin-streptomycin. Non-hypoxic cells (20% O2) were maintained at 37° C. in a 5% CO2, 95% in an air incubator. Hypoxic cells (1% O2) were maintained in a controlled atmosphere chamber (PLAS-LABS, Lansing, Mich.) with a gas mixture containing 1% O2, 5% CO2, and 94% N2 at 37° C. for the indicated time. Bright live cells were counted daily in a hemacytometer using trypan blue dye to exclude dead cells. All cells were grown at a concentration of 10^5 cells/ml. All drugs treatment began at day 0.
siRNAs targeting human LDHA (ON-TARGETplus SMARTpool) were purchased from Dharmacon Research Inc. Targeting sequences for LDHA were a pool of the following four target sequences: sequence 1, […]; sequence 2, […]; sequence 3, […]; sequence 4, […]. Accordingly, one of skill in the art would recognize the siRNA sequences corresponding to these targets. For P493 human lymphoma B cells, transfection of siRNAs was performed using an Amaxa Nucleotransfection device according to the manufacturer's instructions. Briefly, 2 μg siLDHA ON-TARGETplus SMARTpool or ON-TARGETplus Non-targeting Pool (Dharmacon Research Inc.) were transfected into 2×10^6 cells at 0 hours. […]. The remaining cells were harvested for immunoblot analysis. For P198 human pancreatic cancer cells, transfection of siRNAs was performed using X-tremeGENE siRNA Transfection Reagent (Roche) according to the manufacturer's instructions.

[6] = system: P493 cells; assay: Mitochondrial membrane potential by JC-1 flow cytometry; type: cell-based, human; conditions: 9 μM FX11 or/and FK866, 24 hours
Source text: The lipophilic cation dye (5,5′,6,6′-tetrachloro-1,1′,3,3′-tetraethylbenzimidazolcarbocyanine iodide, JC-1) (Invitrogen) was used to detect the loss of the mitochondrial membrane potential. The negative charge established by the intact mitochondrial membrane potential lets the lipophilic dye stain the mitochondria bright red which emits in channel 2 (FL2). When the mitochondrial membrane potential collapses, JC-1 remains in the cytoplasm in a green fluorescent monomeric emission in channel 1 (FL1). JC-1 reversibly changes its color from green to orange as membrane potentials increase (over values of 80-100 mV). 10^5 cells/ml were treated with 9 μM FX11 or/and FK866 for 24 hours. Stained cells were analyzed in FACScan flow cytometers (BD Bioscience).

[7] = system: P493 cells; assay: ATP levels, luciferin-luciferase-based assay; type: cell-based, human; conditions: 9 μM FX11 or 0.5 nM FK866, 20 hours
Experimental: P493 cells were treated with 9 μM FX11 or 0.5 nM FK866 for 20 hours and counted. ATP levels were determined by luciferin-luciferase-based assay (Promega) on aliquots containing equal number of cells according to standard protocol.

[8] = system: AMP kinase (AMPK); assay: Immunoblot of phospho-AMPK; type: cell-based, human; conditions: 20 hours of exposure
[9] = Side effects, hematology and blood chemistry in treated animals
[10] = system: P493 cells; assay: Annexin V / 7-AAD cell death assay; type: cell-based, human; conditions: NAC 20 mM at 24 hours post-transfection
[11] = target: T1, LDHA; assay: Screen of 1200 FDA approved compounds for an inhibitor of LDHA; type: biochemical
Source text: Reduction of LDHA by siRNA induced oxidative stress and cell death. To determine whether a small molecule inhibitor of LDHA could be used to modulate tumor metabolism, 1200 FDA approved compounds were screened to identify an inhibitor of LDHA. […] As such, a series of compounds generated by Vander Jagt and coworkers, who were specifically interested in targeting malarial LDH (pLDH) (Deck et al., 1998; Yu et al., 2001) was screened. […]; 2,3-dihydroxy-6-methyl-7-(phenylmethyl)-4-propylnaphthalene-1-carboxylic acid, Pubchem ID: 10498042) and 11e (E; 2,3-dihydroxy-6-methyl-7-(methyl)-4-propylnaphthalene-1-carboxylic acid, Pubchem ID: 10265351). […]; Yu et al., 2001). […]

## CCCc1c(O)c(O)c(C(=O)O)c2cc(C)c(C)cc12 [E, 2,3-dihydroxy-6-methyl-7-(methyl)-4-propylnaphthalene-1-carboxylic acid, reference compound]
[1]
  tumor growth of established P493 lymphoma xenografts: no detectable anti-tumor activity
[2]
  LDHA inhibitory activity: lower inhibitory activity versus FX11
[3]
  Ki: > 90 µM
[3]; NADH as substrate, Lineweaver-Burk plots
  mode of inhibition of LDHA: competitive inhibitors

## O=C(/C=C/c1cccnc1)NCCCCC1CCN(C(=O)c2ccccc2)CC1 [FK866, reference compound]
[4]; 9 μM FX11 or FK866, 24 hours
  ROS production: increased ROS production
[5]; single agent
  proliferation of P493 cells: diminished proliferation
[6]
  mitochondrial membrane potential: decreased
[7]
  ATP levels: decrease in ATP levels
[8]
  AMP kinase (AMPK) activation: activation
[1]
  tumor growth of established P493 lymphoma xenografts: cytostatic outcome
[9]; doses that affected tumor growth in vivo
  kidney (BUN, creatinine) or liver (aspartate aminotransferase, alanine aminotransferase, alkaline phosphatase) toxicity by blood chemistries: did not reveal any evidence
[9]; single agent, five animals studied
  hematology (cytopenia): mild thrombocytopenia

## CC(=O)N[C@@H](CS)C(=O)O [NAC, N-acetylcysteine, reference compound]
[4]; cells exposed to NAC
  effect on ROS induced by LDHA siRNA: attenuated
[10]
  effect on cell death of siRNA-transfected cells: partially reduced cell death
[5]; 20 mM NAC
  effect on proliferation of P493 cells treated with either FX11 or FK866: partially rescue
[5]; NAC 20 mM at 24 hours post-transfection
  effect on cell proliferation of siRNA-transfected cells: partial rescue of cell proliferation

## CCCOc1ccccc1-c1nc2nn[nH]c2c(=O)[nH]1 [Zaprinast]
[11]
  LDHA inhibition in screen: weak LDHA inhibitor

— patent US20120003156A1, “METHODS FOR TREATING NEOPLASIA BY INHIBITING LACTATE DEHYDROGENASE AND/OR NICOTINAMIDE PHOSPHORIBOSYLTRANSFERASE” (The Johns Hopkins University, priority 2008, published 2012)
